Laboratory results: patent publication US20090105202A1 (priority 2005, published 2009)
pIC50: −log10 of the molar value. Read-outs that look alike come from different tables or passages of the source.

Assays:
[1] = test system: HCT116 cells; assay type: cell-based; design: unit not given here
[2] = test system: HCT116 cells; conditions: read-out: IC50 (the drug concentration producing 50% inhibition of colony formation), drugs 72 hours, colonies counted after 8 days
Procedure: To test the effect of androsterone derivatives of this example, HCT116cells (colorectal carcinoma cells) were plated in 60 mm Petri dishes containing 2.7 ml of medium (modified McCoy's 5a medium containing 10% fetal bovine serum and 100 units/ml penicillin and 100 µg/ml streptomycin). The cells were incubated in a CO2 incubator at 37° C. for 5 hours for attachment to the bottom of Petri dishes. Drugs were made up fresh in medium at ten times the final concentration, and then 0.3 ml of tins stock solution was added to the 2.7 ml of medium containing 5% bovine calf serum (BCS) in the dish. The cells were then incubated with drugs for 72 hours at 37° C. At the end of incubation the drug-containing media were decanted, the dishes were rinsed with 4 ml of Hank's Balance Salt Solution (HBSS). […] The cell colonies stained with methylene blue (0.5% in ethanol) were counted using colony counter after incubation for 8 days for HCT116 cells.

O=c1[nH]cc(F)c(=O)[nH]1 [5-FU, reference compound]
In vitro antitumor activity against HCT116 cells ([1]; 10 μM): 17.00

CC[C@@]1(OC(=O)COc2ccc(C(=O)O[C@@H]3CC[C@@]4(C)[C@@H](CC[C@@H]5[C@@H]4CC[C@]4(C)C(=O)CC[C@@H]54)C3)cc2)C(=O)OCc2c1cc1n(c2=O)Cc2cc3ccccc3nc2-1 [compound 010216, Camptothecin-20S-O-(4-carboxyphenexyacetate) linked with androsterone]
pIC50 [2]: 8.60

CC[C@@]1(OC(=O)COc2ccc(C(=O)O[C@H]3CC[C@@]4(C)[C@@H](CC[C@@H]5[C@@H]4CC[C@]4(C)C(=O)CC[C@@H]54)C3)cc2)C(=O)OCc2c1cc1n(c2=O)Cc2cc3ccccc3nc2-1 [compound 0103021, Camptothecin-20S-O-(4-carboxyphenoxyacetate) linked with epiandrosterone]
pIC50 [2]: 8.46

CC(ON=C1c2cc([N+](=O)[O-])cc([N+](=O)[O-])c2-c2c1ccc([N+](=O)[O-])c2[N+](=O)[O-])C(=O)O[C@H]1CC[C@@]2(C)[C@@H](CC[C@@H]3[C@@H]2CC[C@]2(C)C(=O)CC[C@@H]32)C1 (stereo partly drawn) [compound 991022, (3β,5α)-3-Hydroxyandrostan-17-one (+)-2-(2,4,5,6-tetranitro-9-flourenylidene-aminooxy)proprionate]
In vitro antitumor activity against HCT116 cells ([1]; 1 μM): 100
In vitro antitumor activity against HCT116 cells ([1]; 10 μM): 0

C[C@]12CC[C@H](OC(=O)c3ccc([N+](=O)[O-])o3)C[C@@H]1CC[C@@H]1[C@@H]2CC[C@]2(C)C(=O)CC[C@@H]12 [compound 991027, (3β,5α)-3-Hydroxyandrostan-17-one 5-nitro-2-furoate]
In vitro antitumor activity against HCT116 cells ([1]; 100 nM): 4.00
In vitro antitumor activity against HCT116 cells ([1]; 1 μM): 0
In vitro antitumor activity against HCT116 cells ([1]; 10 μM): 0

C[C@]12CC[C@H](OC(=O)CCC(=O)OCc3ccc4c(c3)C(=O)c3ccccc3C4=O)C[C@@H]1CC[C@@H]1[C@@H]2CC[C@]2(C)C(=O)CC[C@@H]12 [compound 991120, 1-((3β,5α)-3-Hydroxyandrostan-17-one)-4-(2-(hydroxymethyl)anthraquinone)-succinate]
In vitro antitumor activity against HCT116 cells ([1]; 1 μM): 100
In vitro antitumor activity against HCT116 cells ([1]; 10 μM): 0
